The values below come from patent publication US12565640B2, “Method for inducing ureteric bud-like tissue” (Kyoto University, priority 2017, dated 2026).

Experiment [1] has as its system anterior intermediate mesoderm cells. The experiment in a line: Induction of Wolffian duct cells from anterior intermediate mesoderm cells (immunostaining, cell counts). Type of experiment: cell-based, human. Particulars: for differentiation of Wolffian duct cells (OSR1^−GATA3^+PAX2^+) from anterior intermediate mesoderm cells / Total cell numbers after treatment: 3D45 cells; for Total cell numbers after treatment: FIG. 2E, mean±s.d., n=3, before treatment 1.44±0.29; for number of GATA3^+ (Wolffian duct) cells: supplementation during Wolffian duct induction. As for the experimental part:
Anterior intermediate mesoderm cells were treated with Essential 6 medium containing 1 μM CHIR99021, 0.1 μM LDN193189, 200 ng/ml FGF8 and 100 ng/ml glial cell line-derived neurotrophic factor (GDNF; R&D Systems) with or without 0.1 μM TTNPB for 2 days to enhance Wolffian duct leading edge cell induction. Then, the cells were dissociated into single cells by gentle pipetting after treatment with Accutase (Innovative Cell Technologies). The cells were seeded onto low-attachment 96-well plates (Sumitomo Bakelite) at a density of 1×10^4 cells/well in Essential 6 medium with 100 ng/ml GDNF, 200 ng/ml FGF1 (R&D Systems), 0.1 μM TTNPB, 3 μM CHIR99021 and 10 μM Thiazovivin (Santa Cruz Biotechnology) and incubated for 2 days to induce mature Wolffian duct aggregates.
(§1) The cells were fixed with 4% PFA/PBS for 20 min at 4° C. After washing with PBS, the cells were blocked with 1% normal donkey serum (Millipore) and 3% bovine serum albumin (BSA; Nacalai Tesque)/PBST (PBS/0.25% Triton X-100) for 1 h at room temperature. Primary antibodies were diluted in blocking solution and incubated with samples overnight at 4° C. Secondary antibodies were incubated for 1 h at room temperature.

Experiment [2] relates to anterior primitive streak (APS) cells. The experiment in a line: Induction of anterior intermediate mesoderm cells from hiPSCs via anterior primitive streak (immunostaining, flow cytometry). Type of experiment: cell-based, human. Particulars: for effect on induction efficiency / differentiation of OSR1^+GATA3^+ cells: added to the anterior intermediate mesoderm induction stage, 10 ng/ml BMP4 or 0.1 μM LDN193189. As for the experimental part:
Undifferentiated hiPSCs/ESCs were plated at a density of 2.5×10^4 cells/cm^2 onto tissue culture plates in maintenance medium with 10 μM Y-27632 and iMatrix-511 silk. After 24 h, the cells were washed with PBS and treated with Essential 6 medium (Thermo Fisher Scientific) containing 100 ng/ml Activin A (R&D Systems) and 3 μM CHIR99021 (Stem RD) with or without 10 ng/ml bone morphogenetic protein (BMP)4 (PeproTech) for 24 h.
To induce anterior intermediate mesoderm, the anterior primitive streak cells were treated with 200 ng/ml fibroblast growth factor (FGF) 8 (Peprotech), 0.1 μM 4-[(E)-2-(5,6,7,8-Tetrahydro-5,5,8,8-tetramethyl-2-naphthalenyl)-1-propenyl]-benzoic acid (TTNPB; Santa Cruz Biotechnology), 1 μM A83-01 and 0.1 μM LDN193189 for 2 days. Then, the cells were replated onto Matrigel-coated plates at a density of 1×10^5 cells/cm^2 in the anterior intermediate mesoderm induction medium with 10 μM Y-27632 and incubated for an additional 24 h.
as §1
After dissociation with Accutase, the cells were fixed, permeabilized and blocked with a BD Cytofix/Cytoperm Kit (Becton Dickinson). Then the cells were incubated with primary antibodies diluted at 1:100 in blocking solution for 30 min at room temperature. After washing twice, the cells were incubated with secondary antibodies diluted at 1:500 in blocking solution for 30 min at room temperature. The cells were then analyzed using FACS AriaII cell sorter (Becton Dickinson).

Setting [3] is: added to anterior intermediate mesoderm cells, immunostaining.

“Also recorded” adds a separate entry of the source.

On to `Cc1ccc(C2=CCC(C)(C)c3ccc(C#Cc4ccc(C(=O)O)cc4)cc32)cc1` [AGN193109], for which, in experiment [1] (setting [3]), the “RET expression (Wolffian duct cell marker)” value is “diminished RET expression; also recorded: decreased the expression of RET”.
As to `c1ccc2c(-c3cnn4cc(-c5ccc(N6CCNCC6)cc5)cnc34)ccnc2c1` [LDN193189, 4-(6-(4-(piperazin-1-yl)phenyl)pyrazolo[1,5-a]pyrimidin-3-yl)quinoline], in experiment [2], the “effect on induction efficiency / differentiation of OSR1^+GATA3^+ cells” value is “did not change the induction efficiency”. In addition, the “differentiation of Wolffian duct cells (OSR1^−GATA3^+PAX2^+) from anterior intermediate mesoderm cells” value (“differentiation of Wolffian duct cells” for short) in experiment [1] (immunostaining) was “enhanced the Wolffian duct induction”.
For `Cc1cccc(-c2nn(C(=S)Nc3ccccc3)cc2-c2ccnc3ccccc23)n1` [A83-01, 3-(6-Methyl-2-pyridinyl)-N-phenyl-4-(4-quinolinyl)-1H-pyrazole-1-carbothioamide], the “differentiation of SOX17^+ definitive endoderm cells” value in experiment [2] (1 μM A83-01 added to FGF8 and TTNPB, immunostaining) is “diminished; also recorded: decreases the differentiation into definitive endoderm cells”. Besides, the “induction of anterior intermediate mesoderm-like cells (OSR1, GATA3 immunostaining)” value in experiment [2] (treatment of APS cells) is “without inhibiting the induction of anterior intermediate mesoderm-like cells”.
On to `C/C(=C\c1ccc(C(=O)O)cc1)c1ccc2c(c1)C(C)(C)CCC2(C)C` [TTNPB, 4-[(E)-2-(5,6,7,8-Tetrahydro-5,5,8,8-tetramethyl-2-naphthalenyl)-1-propenyl]-benzoic acid], for which the “differentiation of Wolffian duct cells” value in experiment [1] (immunostaining) is reported as “early Wolffian duct cells were stably generated”.
In the case of `O=C(Nc1cccc2cccnc12)c1ccc(N2C(=O)[C@@H]3[C@H](C2=O)[C@@H]2C=C[C@H]3C2)cc1` [IWR-1], in experiment [1] (setting [3]), the “GATA3 and PAX2 expressions” value was “diminished GATA3 and PAX2 expressions”; the OSR1 expression result is listed as “prolonged OSR1 expression”. Moreover, the “differentiation of Wolffian duct cells” value in experiment [1] (immunostaining) is given as “inhibited the Wolffian duct induction”.
`Cc1c[nH]c(-c2cnc(NCCNc3ccc(C#N)cn3)nc2-c2ccc(Cl)cc2Cl)n1` [CHIR99021, 6-[2-[4-(2,4-Dichlorophenyl)-5-(4-methyl-1H-imidazol-2-yl)pyrimidin-2-ylamino]ethylamino]pyridine-3-carbonitrile]: the “differentiation of Wolffian duct cells” value in experiment [1] (immunostaining) was “enhanced OSR1^−GATA3^+PAX2^− cell differentiation; also recorded: enhanced the differentiation”.

B1: GDNF: glial cell line-derived neurotrophic factor (R&D Systems) (protein, UniProt P39905 78-211, looked up)
Glial cell line-derived …: SPDKQMAVLPRRERNRQAAAANPENSRGKGRRGQRGKNRGCVLTAIHLNVTDLGLGYETKEELIFRYCSGSCDAAETTYDKILKNLSRNRRLVSDKVGQACCRPIAFDDDLSFLDDNLVYHILRKHSAKRCGCI
As for B1, in experiment [1], the “Total cell numbers after treatment” value is reported as 2.37±0.56 ×10^5/cm^2 and the “number of GATA3^+ (Wolffian duct) cells” value is given as “increased the number of GATA3^+ Wolffian duct cells”.

B2: FGF8: fibroblast growth factor (FGF) 8 (Peprotech) (protein, UniProt P55075 23-233, looked up)
Fibroblast growth factor 8: QEGPGRGPALGRELASLFRAGREPQGVSQQHVREQSLVTDQLSRRLIRTYQLYSRTSGKHVQVLANKRINAMAEDGDPFAKLIVETDTFGSRVRVRGAETGLYICMNKKGKLIAKSNGKGKDCVFTEIVLENNYTALQNAKYEGWYMAFTRKGRPRKGSKTRQHQREVHFMKRLPRGHHTTEQSLRFEFLNYPPFTRSLRGSQRTWAPEPR
Take B2: in experiment [1], the “Total cell numbers after treatment” value is recorded as 4.69±0.65 ×10^5/cm^2 and the “number of GATA3^+ (Wolffian duct) cells” value is “increased the number of GATA3^+ cells”. In addition, the “differentiation of Wolffian duct cells” value in experiment [1] (immunostaining) is reported as “enhanced the Wolffian duct induction”.

B3: BMP4: bone morphogenetic protein (BMP)4 (PeproTech) (protein, UniProt P12644 293-408, looked up)
Bone morphogenetic protein 4: SPKHHSQRARKKNKNCRRHSLYVDFSDVGWNDWIVAPPGYQAFYCHGDCPFPLADHLNSTNHAIVQTLVNSVNSSIPKACCVPTELSAISMLYLDEYDKVVLKNYQEMVVEGCGCR
As for B3, the “induction rates of GATA3^+ cells” value in experiment [2] (FIG. 1H, 10 ng/ml BMP4 at APS induction stage, 0.1 μM LDN193189 at anterior IM induction stage, mean±s.d., n=4) came to 69.1±13.9%. Also, the “effect on induction efficiency / differentiation of OSR1^+GATA3^+ cells” value in experiment [2] was “inhibited the differentiation”. The “OSR1^+GATA3^+ cell induction rate” value in experiment [2] (added to the anterior primitive streak induction stage) is reported as “around 70 % of the total cells obtained”. In addition, the “effect on OSR1^+GATA3^+ cell induction” value in experiment [2] (added to the anterior primitive streak induction stage, 10 ng/ml BMP4, immunostaining) is given as “facilitated the OSR1^+GATA3^+ cell induction”. Moreover, the “differentiation of Wolffian duct cells” value in experiment [1] (immunostaining) is “suppressed Wolffian duct differentiation; also recorded: inhibited the differentiation of Wolffian duct cells”.
